# Source: ChEMBL document CHEMBL3351610, “Synthesis and biological evaluation of substituted 4-(thiophen-2-ylmethyl)-2H-phthalazin-1-ones as potent PARP-1 inhibitors” (Bioorg Med Chem Lett, 2014)
# Biological target: Poly [ADP-ribose] polymerase 1 (Homo sapiens, UniProt P09874)
# Experiment: Inhibition of human PARP1
# Sequence of Poly [ADP-ribose] polymerase 1 (P09874 whole entry): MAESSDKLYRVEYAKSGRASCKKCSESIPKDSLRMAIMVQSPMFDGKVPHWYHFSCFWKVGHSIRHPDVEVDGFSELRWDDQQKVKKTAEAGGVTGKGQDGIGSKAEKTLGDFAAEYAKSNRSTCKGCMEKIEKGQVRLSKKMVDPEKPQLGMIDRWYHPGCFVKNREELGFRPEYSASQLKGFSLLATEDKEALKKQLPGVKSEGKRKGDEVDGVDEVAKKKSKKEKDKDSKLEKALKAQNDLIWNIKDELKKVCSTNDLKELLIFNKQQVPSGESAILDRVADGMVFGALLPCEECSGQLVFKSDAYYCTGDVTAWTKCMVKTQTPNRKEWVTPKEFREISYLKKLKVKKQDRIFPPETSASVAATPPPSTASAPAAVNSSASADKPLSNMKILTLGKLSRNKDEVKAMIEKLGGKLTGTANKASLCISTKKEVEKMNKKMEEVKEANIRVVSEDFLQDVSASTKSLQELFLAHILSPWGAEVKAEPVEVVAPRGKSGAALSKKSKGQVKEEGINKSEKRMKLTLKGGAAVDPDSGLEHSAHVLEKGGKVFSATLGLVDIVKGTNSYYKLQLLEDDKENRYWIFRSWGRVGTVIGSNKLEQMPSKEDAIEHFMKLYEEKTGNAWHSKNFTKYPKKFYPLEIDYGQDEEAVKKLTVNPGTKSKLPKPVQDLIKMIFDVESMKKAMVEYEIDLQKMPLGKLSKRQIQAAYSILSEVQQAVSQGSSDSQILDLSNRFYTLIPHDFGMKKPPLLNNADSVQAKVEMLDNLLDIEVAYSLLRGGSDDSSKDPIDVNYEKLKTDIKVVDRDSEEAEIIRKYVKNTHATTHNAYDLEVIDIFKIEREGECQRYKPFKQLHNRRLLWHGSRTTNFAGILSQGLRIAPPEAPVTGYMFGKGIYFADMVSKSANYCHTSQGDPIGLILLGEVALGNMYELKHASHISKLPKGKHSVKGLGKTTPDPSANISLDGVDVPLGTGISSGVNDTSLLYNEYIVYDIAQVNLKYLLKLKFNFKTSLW
row,Structure (SMILES),IC50
1,O=C(c1csc(Cc2n[nH]c(=O)c3ccccc23)c1)N1CCN(C(=O)C2CC2)CC1,105 nM
2,CC(=O)N1CCN(C(=O)c2csc(Cc3n[nH]c(=O)c4ccccc34)c2)CC1,124 nM
3,CCC(=O)N1CCN(C(=O)c2csc(Cc3n[nH]c(=O)c4ccccc34)c2)CC1,78.6 nM
4,COc1ccc(CC(=O)N2CCN(C(=O)c3csc(Cc4n[nH]c(=O)c5ccccc45)c3)CC2)cc1,94.9 nM
5,N#Cc1ccc(C(=O)N2CCN(C(=O)c3csc(Cc4n[nH]c(=O)c5ccccc45)c3)CC2)cc1,85.5 nM
6,O=C(c1ccc(Br)cc1)N1CCN(C(=O)c2csc(Cc3n[nH]c(=O)c4ccccc34)c2)CC1,72.3 nM
7,O=C(c1csc(Cc2n[nH]c(=O)c3ccccc23)c1)N1CCN(C(=O)c2ccc3c(c2)OCO3)CC1,39.6 nM
8,O=C(c1csc(Cc2n[nH]c(=O)c3ccccc23)c1)N1CCN(C(=O)c2cccs2)CC1,10.8 nM
9,O=C(c1ccncc1)N1CCN(C(=O)c2csc(Cc3n[nH]c(=O)c4ccccc34)c2)CC1,108 nM
10,O=C(c1csc(Cc2n[nH]c(=O)c3ccccc23)c1)N1CCN(C(=O)c2ccccn2)CC1,46.1 nM
